Patent US8273788B2, “Five-membered iminocyclitol derivatives as selective and potent glycosidase inhibitors: new structures for antivirals and osteoarthritis therapeutics” (Academia Sinica, Taiwan, priority 2005, dated 2012)

What follows are compounds tested on dengue virus serotype 2 (DEN-2) (assay: Anti-DEN-2 cell-based assay (plaque forming assay, BHK-21 cells)). Conditions: at 50 μM.

Row | SMILES | inhibition of DEN-2 infection
1 | CC(=O)OC[C@H]1N[C@H](CNC(=O)C2Cc3ccccc32)[C@@H](OC(C)=O)[C@@H]1OC(C)=O (stereo partly shown) [Compound 30] | no inhibition

Same assay, conditions: at 50 and 100 μM

Row | SMILES | inhibition of DEN-2 infection
2 | CCCCC(CC)C(=O)NC[C@H]1N[C@H](CO)[C@@H](O)[C@@H]1O (stereo partly shown) [Compound 7] | no inhibition
3 | O=C(Cc1cccc2ccccc12)NC[C@H]1N[C@H](CO)[C@@H](O)[C@@H]1O [Compound 17] | no inhibition

Same assay, conditions: read-out: DEN IC50; M.O.I. = 0.1, virus production, BHK-21 cells

Row | SMILES | IC50 [µM]
4 | CCCCCCCCCN1C(CO)C(O)C(O)C1CNC(=O)C1Cc2ccccc21 (stereo not shown) [Compound 36] | 11.8 ± 0.2

Same assay, conditions: read-out: DEN IC90; M.O.I. = 0.1, virus production, BHK-21 cells

Row | SMILES | IC90 [µM]
5 | CCCCCCCCCN1C(CO)C(O)C(O)C1CNC(=O)C1Cc2ccccc21 (stereo not shown) [Compound 36] | 18 ± 0.2

The compounds below were run on Japanese encephalitis virus (JEV) (assay: Anti-JEV cell-based assay (plaque forming assay, BHK-21 cells)). Conditions: at 50 μM.

Row | SMILES | inhibition of JEV infection
6 | CC(=O)OC[C@H]1N[C@H](CNC(=O)C2Cc3ccccc32)[C@@H](OC(C)=O)[C@@H]1OC(C)=O (stereo partly shown) [Compound 30] | no inhibition

Same assay, conditions: at 50 and 100 μM

Row | SMILES | inhibition of JEV infection
7 | CCCCC(CC)C(=O)NC[C@H]1N[C@H](CO)[C@@H](O)[C@@H]1O (stereo partly shown) [Compound 7] | no inhibition
8 | O=C(Cc1cccc2ccccc12)NC[C@H]1N[C@H](CO)[C@@H](O)[C@@H]1O [Compound 17] | no inhibition

Same assay, conditions: read-out: JEV IC50; M.O.I. = 0.1, virus production, BHK-21 cells

Row | SMILES | IC50 [µM]
9 | CCCCCCCCCN1C(CO)C(O)C(O)C1CNC(=O)C1Cc2ccccc21 (stereo not shown) [Compound 36] | 11.3 ± 1.9

Same assay, conditions: read-out: JEV IC90; M.O.I. = 0.1, virus production, BHK-21 cells

Row | SMILES | IC90 [µM]
10 | CCCCCCCCCN1C(CO)C(O)C(O)C1CNC(=O)C1Cc2ccccc21 (stereo not shown) [Compound 36] | 17.5 ± 0.8

These compounds were tested against N-acetyl-β-hexosaminidase (assay: N-acetyl-β-hexosaminidase inhibition assay (in situ screen, IC50, Ki)). Conditions: pure compound; read-out: N-acetyl-β-hexosaminidse IC50.
Assay type: biochemical, jack bean
Protocol: (§1) A mixture of iminocyclitol 4, a carboxylic acid (1 equiv, Scheme 2), diisopropyl ethylamine (DIEA, 2.2 equiv), and (1H-benzotriazole-1-yl)-1,1,3,3-tetramethyl-uronium hexafluorophosphate (HBTU, 1.1 equiv) in DMSO was shaken in 96-well microtiter plates for 5 h. Crude reaction products were randomly selected (30%) and analyzed by ESI-MS to ensure the presence of the desired products. The reaction mixture was diluted by appropriate buffer solutions and transferred to another 96-well microtiter plate for screening directly without any purification. […] Assuming the amide formation is complete, the percentage of inhibition relative to the control was calculated on the basis of absorbance at 405 nm for p-nitrophenol released from their corresponding substrates.
(§2) Enzyme assay. General procedure for the assay with various glycosidases. The initial velocities of the hydrolysis were measured spectrophotometrically at various concentrations of p-nitrophenyl-glycopyranoside (4 mM, 2 mM, 1 mM, 0.5 mM, 0.25 mM, 0.125 mM, 0.0625 mM) at 405 nm using Bio Assay Reader (Perkin Elmer HTS 7000 Plus) at 30° C. The obtained data were fitted into the Michaelis-Menten equation by using the Kaleida Graph program to determine the apparent Km values. […] The assays performed in wells of the microtiter plate contained either sodium phosphate buffer (50 mM, pH 7, for α- and β-glucosidase, α- and β-galactosidase, α- and β-mannosidase, α-fucosidase), or Mcllvaine's buffer (25 mM, pH 6, N-acetyl-β-hexosaminidase, jack bean).
(§3) The secondary plot was generated by plotting the apparent Km values as a function of inhibitor concentrations. Ki was calculated from the negative value of the x-intercept of this plot.

Row | SMILES | IC50 [µM]
11 | CCCCC(CC)C(=O)NC[C@H]1N[C@H](CO)[C@@H](O)[C@@H]1O (stereo partly shown) [Compound 7] | 19
12 | O=C(NC[C@H]1N[C@H](CO)[C@@H](O)[C@@H]1O)c1ccc2ccccc2c1 [Compound 15] | 44
13 | O=C(Cc1ccc2ccccc2c1)NC[C@H]1N[C@H](CO)[C@@H](O)[C@@H]1O [Compound 16] | 15
14 | COC(=O)c1ccc2[nH]c(C(=O)NC[C@H]3N[C@H](CO)[C@@H](O)[C@@H]3O)cc2c1 [Compound 18] | 42
15 | O=C(CCc1c[nH]c2ccccc12)NC[C@H]1N[C@H](CO)[C@@H](O)[C@@H]1O [Compound 21] | 3.2
16 | O=C(NC[C@H]1N[C@H](CO)[C@@H](O)[C@@H]1O)c1cn(Cc2ccccc2)c2ccccc12 [Compound 23] | 4.7
17 | CN(C)c1ccc(/C=C/C(=O)NC[C@H]2N[C@H](CO)[C@@H](O)[C@@H]2O)cc1 [Compound 29] | 7.02

Same assay, conditions: reaction product at 30 μM, in situ screening

Row | SMILES | N-acetyl-β-hexosaminidse Inhibition (%)
18 | O=C(CO)NC[C@H]1N[C@H](CO)[C@@H](O)[C@@H]1O [Compound 6] | 67
19 | CCCCC(CC)C(=O)NC[C@H]1N[C@H](CO)[C@@H](O)[C@@H]1O (stereo partly shown) [Compound 7] | 20
20 | O=C(NC[C@H]1N[C@H](CO)[C@@H](O)[C@@H]1O)c1ccc2ccccc2c1 [Compound 15] | 31
21 | O=C(Cc1ccc2ccccc2c1)NC[C@H]1N[C@H](CO)[C@@H](O)[C@@H]1O [Compound 16] | 10
22 | O=C(Cc1cccc2ccccc12)NC[C@H]1N[C@H](CO)[C@@H](O)[C@@H]1O [Compound 17] | 45
23 | COC(=O)c1ccc2[nH]c(C(=O)NC[C@H]3N[C@H](CO)[C@@H](O)[C@@H]3O)cc2c1 [Compound 18] | 23
24 | O=C(CCc1c[nH]c2ccccc12)NC[C@H]1N[C@H](CO)[C@@H](O)[C@@H]1O [Compound 21] | 27
25 | O=C(NC[C@H]1N[C@H](CO)[C@@H](O)[C@@H]1O)c1cn(Cc2ccccc2)c2ccccc12 [Compound 23] | 14
26 | CN(C)c1ccc(/C=C/C(=O)NC[C@H]2N[C@H](CO)[C@@H](O)[C@@H]2O)cc1 [Compound 29] | 17

Each compound was assayed against T1, α-glucosidase (Saccharomyces cerevisiae, UniProt P53341) (assay: α-glucosidase inhibition assay (in situ screen, IC50, Ki)). Conditions: pure compound.
T1 construct: purchased Sigma Co. (St. Louis, Mo.); host or cells: baker's yeast
Assay type: biochemical, baker's yeast
Protocol: as §1
General procedure for coupling reactions and in situ screening. To a DMSO solution (10 μL) in each well of a 96-well microtiter plate was added each carboxylic acid (10 μL from a 10 mm stock solution in DMSO, 0.1 μmol), HBTU (10 μL from a 11 mm stock solution in DMSO, 1.1 equiv, 0.11 μmol), and DIEA (10 μL from a 22 mM stock solution in DMSO, 2.2 equiv, 0.22 μmol).
as §2, §3

T1 sequence (P53341 whole entry): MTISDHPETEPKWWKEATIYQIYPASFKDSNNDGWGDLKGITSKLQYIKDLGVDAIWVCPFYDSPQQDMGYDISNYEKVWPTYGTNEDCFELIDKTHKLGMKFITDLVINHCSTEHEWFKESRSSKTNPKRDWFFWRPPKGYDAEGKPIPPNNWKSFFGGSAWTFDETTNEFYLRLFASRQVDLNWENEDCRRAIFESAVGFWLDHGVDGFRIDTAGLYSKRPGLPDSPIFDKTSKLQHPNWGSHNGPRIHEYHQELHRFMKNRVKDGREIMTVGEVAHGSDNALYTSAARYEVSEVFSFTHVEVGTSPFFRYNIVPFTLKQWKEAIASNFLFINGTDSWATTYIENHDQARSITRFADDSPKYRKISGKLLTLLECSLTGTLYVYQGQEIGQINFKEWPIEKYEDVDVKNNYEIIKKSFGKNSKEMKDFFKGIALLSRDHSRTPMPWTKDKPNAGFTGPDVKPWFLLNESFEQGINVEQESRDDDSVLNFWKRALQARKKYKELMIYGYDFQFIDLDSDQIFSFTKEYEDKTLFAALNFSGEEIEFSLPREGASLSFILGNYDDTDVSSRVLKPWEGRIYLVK

Row | SMILES | IC50 [µM]
27 | CCCCC(CC)C(=O)NC[C@H]1N[C@H](CO)[C@@H](O)[C@@H]1O (stereo partly shown) [Compound 7] | 4
28 | O=C(NC[C@H]1N[C@H](CO)[C@@H](O)[C@@H]1O)c1ccc2ccccc2c1 [Compound 15] | 100
29 | O=C(Cc1ccc2ccccc2c1)NC[C@H]1N[C@H](CO)[C@@H](O)[C@@H]1O [Compound 16] | 19
30 | O=C(Cc1cccc2ccccc12)NC[C@H]1N[C@H](CO)[C@@H](O)[C@@H]1O [Compound 17] | 0.28
31 | COC(=O)c1ccc2[nH]c(C(=O)NC[C@H]3N[C@H](CO)[C@@H](O)[C@@H]3O)cc2c1 [Compound 18] | 120
32 | O=C(CCc1c[nH]c2ccccc12)NC[C@H]1N[C@H](CO)[C@@H](O)[C@@H]1O [Compound 21] | 11
33 | O=C(NC[C@H]1N[C@H](CO)[C@@H](O)[C@@H]1O)c1cn(Cc2ccccc2)c2ccccc12 [Compound 23] | 17
34 | CN(C)c1ccc(/C=C/C(=O)NC[C@H]2N[C@H](CO)[C@@H](O)[C@@H]2O)cc1 [Compound 29] | 280

Same assay, conditions: reaction product at 20 μM, in situ screening

Row | SMILES | α-glucosidase Inhibition (%)
35 | O=C(CO)NC[C@H]1N[C@H](CO)[C@@H](O)[C@@H]1O [Compound 6] | 10
36 | CCCCC(CC)C(=O)NC[C@H]1N[C@H](CO)[C@@H](O)[C@@H]1O (stereo partly shown) [Compound 7] | 61
37 | O=C(NC[C@H]1N[C@H](CO)[C@@H](O)[C@@H]1O)c1ccc2ccccc2c1 [Compound 15] | 45
38 | O=C(Cc1ccc2ccccc2c1)NC[C@H]1N[C@H](CO)[C@@H](O)[C@@H]1O [Compound 16] | 67
39 | O=C(Cc1cccc2ccccc12)NC[C@H]1N[C@H](CO)[C@@H](O)[C@@H]1O [Compound 17] | 94
40 | COC(=O)c1ccc2[nH]c(C(=O)NC[C@H]3N[C@H](CO)[C@@H](O)[C@@H]3O)cc2c1 [Compound 18] | 36
41 | O=C(CCc1c[nH]c2ccccc12)NC[C@H]1N[C@H](CO)[C@@H](O)[C@@H]1O [Compound 21] | 83
42 | O=C(NC[C@H]1N[C@H](CO)[C@@H](O)[C@@H]1O)c1cn(Cc2ccccc2)c2ccccc12 [Compound 23] | 63
43 | CN(C)c1ccc(/C=C/C(=O)NC[C@H]2N[C@H](CO)[C@@H](O)[C@@H]2O)cc1 [Compound 29] | 22

Same assay, conditions: value in brackets; read-out: α-glucosidase (Ki)

Row | SMILES | Ki [µM]
44 | O=C(Cc1cccc2ccccc12)NC[C@H]1N[C@H](CO)[C@@H](O)[C@@H]1O [Compound 17] | 0.077

These compounds were tested against β-glucosidase (assay: β-glucosidase inhibition assay (in situ screen, IC50, Ki)). Conditions: pure compound.
Assay type: biochemical, almonds
Protocol: as §1, §2, §3

Row | SMILES | IC50 [µM]
45 | CCCCC(CC)C(=O)NC[C@H]1N[C@H](CO)[C@@H](O)[C@@H]1O (stereo partly shown) [Compound 7] | 4.8
46 | O=C(NC[C@H]1N[C@H](CO)[C@@H](O)[C@@H]1O)c1ccc2ccccc2c1 [Compound 15] | 58
47 | O=C(Cc1ccc2ccccc2c1)NC[C@H]1N[C@H](CO)[C@@H](O)[C@@H]1O [Compound 16] | 49
48 | O=C(Cc1cccc2ccccc12)NC[C@H]1N[C@H](CO)[C@@H](O)[C@@H]1O [Compound 17] | 92
49 | COC(=O)c1ccc2[nH]c(C(=O)NC[C@H]3N[C@H](CO)[C@@H](O)[C@@H]3O)cc2c1 [Compound 18] | 10
50 | O=C(CCc1c[nH]c2ccccc12)NC[C@H]1N[C@H](CO)[C@@H](O)[C@@H]1O [Compound 21] | 75
51 | O=C(NC[C@H]1N[C@H](CO)[C@@H](O)[C@@H]1O)c1cn(Cc2ccccc2)c2ccccc12 [Compound 23] | 92
52 | CN(C)c1ccc(/C=C/C(=O)NC[C@H]2N[C@H](CO)[C@@H](O)[C@@H]2O)cc1 [Compound 29] | 3.2

Same assay, conditions: reaction product at 20 μM, in situ screening

Row | SMILES | β-glucosidase Inhibition (%)
53 | O=C(CO)NC[C@H]1N[C@H](CO)[C@@H](O)[C@@H]1O [Compound 6] | 23
54 | CCCCC(CC)C(=O)NC[C@H]1N[C@H](CO)[C@@H](O)[C@@H]1O (stereo partly shown) [Compound 7] | 52
55 | O=C(NC[C@H]1N[C@H](CO)[C@@H](O)[C@@H]1O)c1ccc2ccccc2c1 [Compound 15] | 28
56 | O=C(Cc1ccc2ccccc2c1)NC[C@H]1N[C@H](CO)[C@@H](O)[C@@H]1O [Compound 16] | 44
57 | O=C(Cc1cccc2ccccc12)NC[C@H]1N[C@H](CO)[C@@H](O)[C@@H]1O [Compound 17] | 45
58 | COC(=O)c1ccc2[nH]c(C(=O)NC[C@H]3N[C@H](CO)[C@@H](O)[C@@H]3O)cc2c1 [Compound 18] | 53
59 | O=C(CCc1c[nH]c2ccccc12)NC[C@H]1N[C@H](CO)[C@@H](O)[C@@H]1O [Compound 21] | 20
60 | O=C(NC[C@H]1N[C@H](CO)[C@@H](O)[C@@H]1O)c1cn(Cc2ccccc2)c2ccccc12 [Compound 23] | 28
61 | CN(C)c1ccc(/C=C/C(=O)NC[C@H]2N[C@H](CO)[C@@H](O)[C@@H]2O)cc1 [Compound 29] | 55

Same assay, conditions: value in brackets

Row | SMILES | Ki [µM]
62 | O=C(NC[C@H]1N[C@H](CO)[C@@H](O)[C@@H]1O)c1ccc2ccccc2c1 [Compound 15] | 30
63 | COC(=O)c1ccc2[nH]c(C(=O)NC[C@H]3N[C@H](CO)[C@@H](O)[C@@H]3O)cc2c1 [Compound 18] | 6.2
64 | CN(C)c1ccc(/C=C/C(=O)NC[C@H]2N[C@H](CO)[C@@H](O)[C@@H]2O)cc1 [Compound 29] | 1.4
